Results published in US10842765B2, “Methods of reducing or preventing oxidation of small dense ldl or membrane polyunsaturated fatty acids” (Amarin Pharmaceuticals Ireland Limited, priority 2016, dated 2020).
Several values for one entry are separate records, joined by “and”; a condition that tells them apart may be missing. Equal entries are not always repeated.

Assays:
[1] = Glucose-induced membrane lipid peroxidation (LOOH) in lipid vesicles, Example 4; format: biochemical; conditions: 1.0 μM; glucose 200 mg/dL; 96 hours
Method: An experiment was conducted to test the ability of EPA to interfere with the effects of high glucose on membrane lipid peroxidation and organization in vesicles enriched with PUFAs. […] Vitamin E (α-tocopherol) was also purchased from Sigma-Aldrich and prepared in ethanol at 1.0 mM (ε=3.06×10^4 M^−1 cm^−1 at 294 nm) just prior to experimental use. […] All test compounds were further diluted in ethanol or aqueous buffer as needed. Glucose was prepared in saline buffer (0.5 mM HEPES, 154 mM NaCl, pH 7.3) at 11.0 mM (200 mg/dL). CHOD-iodide color reagent (stock) was prepared, with slight modification, as described by from El-Saadani et al. (J. […] Samples were shell-dried under nitrogen gas and placed under vacuum for 1 h to remove residual solvent. […] Lipid suspensions were then vortexed for 3 min at ambient temperature to form MLVs. All MLV samples were subjected to time-dependent autoxidation by incubating at 37° C. in an uncovered, shaking water bath. This method allows lipid peroxidation to occur gradually without requiring the use of exogenous initiators. Small aliquots (5-100 μL) of each sample were removed, immediately following MLV preparation (0 hour) and after exposing samples to oxidative conditions for 72 or 96 hour, and combined with 1.0 mL of activated CHOD-iodide color reagent. Aliquot volume was reduced with each successive time point to ensure that spectrophotometric readings were within the optimal adsorption range. Test samples were covered and incubated in darkness at room temperature for at least 4 hr. Sample absorbances were then measured against a CHOD blank at 365 nm using a Beckman DU-640 spectrophotometer. The CHOD colorimetric assay is based on the oxidation of iodide (I^−) by lipid hydroperoxide (LOOH) to form triiodide (I3^−), the quantity of which is directly proportional to the amount of LOOH present in the lipid sample. The molar absorptivity (I3^−) of I3^− is 2.46×10^4 M^−1 cm^−1 at 365 nm. […]

[2] = system: human sdLDL; assay: Copper-induced sdLDL oxidation, TBARS, Example 7; format: biochemical
Method: Samples were prepared at 100 μg/mL sdLDL and incubated with EPA or DHA (10.0 μM each) for 30 minutes prior to initiating lipid oxidation using 10 μM CuSO4. Samples were maintained at 37° C. in a shaking water bath for 1 hour. Lipid oxidation was measured by colorimetric assay of TBARS formation and expressed as molar equivalents of MDA.
An experiment to study the antioxidant effect of EPA in LDL and small dense LDL (“sdLDL”) was performed. LDL and sdLDL were isolated from the plasma of healthy volunteers by iodixanol density gradient ultracentrifugation, and adjusted to a final apolipoprotein concentration of 2 mg/mL. […] Lipid oxidation was initiated with 10 μM CuSO4 and monitored by the colorimetric detection of thiobarbituric acid reactive substances (TBARS) for 1 hr. Vitamin E was also incubated with sample aliquots as a positive control.

[3] = system: HUVECs; assay: NO and ONOO- release from HUVECs exposed to oxLDL (nanosensors), Example 8; format: cell-based, human; conditions: ECs exposed to oxLDL
Method: Human umbilical vein endothelial cells (HUVECs) were isolated into primary cultures from female donors by Clonetics (San Diego, Calif.) and purchased as proliferating cells. All cell culture donors were healthy, with no pregnancy or prenatal complications. […] The confluent cells (4 to 5×10^5 cells/35 mm dish) were placed with minimum essential medium containing 3 mM L-arginine and 0.1 mM BH4 [(6R)-5,6,7,8-tetrahydrobiopterin]. Before experimental use, the cells (from second or third passage) were rinsed twice with Tyrode-HEPES buffer with 1.8 mM CaCl2. […]
Oxidation was monitored by the use of measurements of TBARS. […] TBARS concentration was determined as malondialdehyde (MDA) equivalents with the use of an MDA standard curve. […]
The amperometric method (with a response time of 0.1 ms) provides a quantitative signal (current) that is directly proportional to changes (from basal levels) in NO or ONOO^− concentration. […] Basal NO or ONOO^− levels were measured by differential pulse voltammetry in separate experiments. […]
Data are presented as mean±S.D. for (N) separate samples or experiments. Differences between groups were analyzed using the two-tailed, Student t-test (for comparisons between only two groups) or ANOVA followed by Student-Newman-Keuls multiple comparisons post-hoc analysis (for comparisons between three or more groups). […]

[4] = X-ray diffraction of membrane cholesterol domains in POPC/cholesterol model membranes, Example 9; conditions: C/P 1.5:1
Method: The fatty acid stock solutions were stored at −20° C. until use.
Samples were shell-dried under nitrogen gas and placed under vacuum for 3 hours to remove residual solvent at room temperature. After desiccation, each sample was resuspended in saline buffer (0.5 mM HEPES, 154 mM NaCl, pH 7.3) to yield a final phospholipid concentration of 2.5 mg/mL. Lipid suspensions were then vortexed for 3 minutes at ambient temperature to form MLVs.
Briefly, a 100 μL aliquot of each MLV preparation (containing 250 μg MLV) was transferred to a Lucite® sedimentation cell fitted with an aluminum foil substrate designed to collect MLVs into a single membrane pellet upon centrifugation.
After centrifugal orientation, sample supernatants were aspirated and aluminum foil substrates, each supporting a single membrane pellet, were removed from the sedimentation cells. Sample pellets were dried for 5-10 minutes at ambient conditions, mounted onto curved glass supports, and placed in hermetically-sealed, brass or glass containers (for immediate analysis or temporary storage, respectively). All x-ray diffraction experiments were conducted at 20° C., 74% relative humidity. The latter was established by exposing membrane samples to saturated solutions of L-(+)-tartaric acid (K2C4H4O6.½H2O) for at least 1 hour prior to experimental analysis. […]

[5] = system: human LDL; assay: Copper-induced unfractionated LDL oxidation, TBARS, Example 7; format: biochemical; conditions: beginning at 1.0 μM; 1 hour
[6] = system: rat renal glomerular endothelial cells; assay: NO and ONOO- release ex vivo from glomerular endothelial cells exposed to oxLDL and high glucose, Example 13; format: cell-based; conditions: 10.0 μM, 1 hr; oxLDL 11 mg/dL and glucose 300 mg/dL; vs vehicle
Method: Healthy male Wistar Kyoto (WKY) rats, aged 7-9 weeks and weighing 250±20 g, were obtained from inbred colonies (National Institutes of Health, Bethesda, Md.). Animals were housed in a controlled environment that provided food and water ad libitum prior to the study. […] Animals were sacrificed and tissue samples obtained immediately for experimentation. All procedures were conducted in accordance with standard Institutional Animal Care and Use Committee guidelines and conformed to the Guide for the Care and Use of Laboratory Animals published by the US National Institutes of Health.
EPA and DHA were purchased from Sigma-Aldrich (St. Louis, Mo.) and solubilized in ethanol to 1.0 mM under nitrogen atmosphere. […]
LDL was oxidized according to the methods of Huber et al. 16 Briefly, the purified LDL fraction was dialyzed against Tris/NaCl Buffer (50 mM Tris in 0.15 M NaCl, pH 8.0) to remove EDTA. […] LDL oxidation was initiated with 20 μM CuSO4 and monitored spectrophotometrically (234 nm) over a period of 24 hours until complete. […]
Each analyte was measured from amperograms and standard calibration curves collected under maximum current. […] Changes in current (proportional to the molar concentrations of NO or ONOO^− released) were monitored continuously immediately following Cal stimulation. […]

With CC/C=C\C/C=C\C/C=C\C/C=C\C/C=C\CCCC(=O)O [EPA, cis-5,8,11,14,17-eicosapentaenoic acid] the “antioxidant effects, separate treatments” value [1] was “separate and potent antioxidant effects”, the “inhibition of sdLDL oxidation as compared to vehicle or DHA” value ([2]; 10.0 μM, after 4 hours) was “significantly inhibited sdLDL oxidation” and the “inhibition of sdLDL oxidation (TBARS formation) vs vehicle” value ([2]; each agent 10 μM, 1 hr) was 93±2% and 92±8%. The “increase in NO release as compared to vehicle” value [3] was 45%, the “Relative Chotesterol Domain Peak Intensity” value ([4]; EPA D/P mole ratio 1:60) was 29.5 ± 10.9 and the “Relative Chotesterol Domain Peak Intensity” value ([4]; EPA D/P mole ratio 1:90) was 36.0 ± 3.1.
In the case of CC(C)c1c(C(=O)Nc2ccccc2O)c(-c2ccccc2)c(-c2ccc(F)cc2)n1CC[C@@H](O)C[C@@H](O)CC(=O)O [ATM, Ortho (o)-hydroxy atorvastatin metabolite], the “antioxidant effects, separate treatments” value [1] is reported as “separate and potent antioxidant effects”, the “inhibition of sdLDL oxidation vs vehicle” value ([2]; ATM at the highest dose, 1 hr) is reported as 90±2% and the “inhibition of unfractionated LDL oxidation, dose dependence” value [5] is reported as “significant and dose-dependent inhibition of unfractionated LDL oxidation”. The “reduction in ONOO^− release” value [6] was 25%.
